Test results reported in PubChem BioAssay (NCI).
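Test compounds were applied to cells in 96-well plates for 48 hours at 5 doses. TGI denotes the concentration required for complete inhibition of growth.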

Key:
Assay in all cases: inhibition of tumour cell growth, NCI panel, 48 h
NCI-H23 lung = system: NCI-H23 lung
MALME-3M melanoma = system: MALME-3M melanoma
MDA-MB-435 = system: MDA-MB-435
ACHN renal = system: ACHN renal
U251 CNS = system: U251 CNS
DU-145 prostate = system: DU-145 prostate
A498 renal = system: A498 renal
K-562 leukemia = system: K-562 leukemia
OVCAR-3 ovarian = system: OVCAR-3 ovarian
HOP-92 NSCLC = system: HOP-92 NSCLC
EKVX NSCLC = system: EKVX NSCLC
NCI/ADR-RES ovarian = system: NCI/ADR-RES ovarian
HCT-15 colon = system: HCT-15 colon
MDA-MB-231 breast = system: MDA-MB-231 breast
SNB-75 CNS = system: SNB-75 CNS
IGROV1 ovarian = system: IGROV1 ovarian
PC-3 prostate = system: PC-3 prostate
LOX IMVI melanoma = system: LOX IMVI melanoma
BT-549 breast = system: BT-549 breast
OVCAR-8 ovarian = system: OVCAR-8 ovarian
OVCAR-5 ovarian = system: OVCAR-5 ovarian
SNB-19 CNS = system: SNB-19 CNS
SF-268 CNS = system: SF-268 CNS
A549 NSCLC = system: A549 NSCLC
SK-OV-3 ovarian = system: SK-OV-3 ovarian
COLO 205 colon = system: COLO 205 colon
MCF7 breast = system: MCF7 breast
CAKI-1 renal = system: CAKI-1 renal
HS 578T breast = system: HS 578T breast
OVCAR-4 ovarian = system: OVCAR-4 ovarian
HOP-62 NSCLC = system: HOP-62 NSCLC
UO-31 renal = system: UO-31 renal
TK-10 renal = system: TK-10 renal
NCI-H460 lung = system: NCI-H460 lung
M14 melanoma = system: M14 melanoma
786-0 renal = system: 786-0 renal
SF-295 CNS = system: SF-295 CNS
T-47D breast = system: T-47D breast
SK-MEL-2 melanoma = system: SK-MEL-2 melanoma
HCC-2998 colon = system: HCC-2998 colon
SN12C renal = system: SN12C renal
HCT-116 colon = system: HCT-116 colon
KM12 colon = system: KM12 colon
RPMI-8226 leukemia = system: RPMI-8226 leukemia
HT29 colon = system: HT29 colon
MDA-N = system: MDA-N
NCI-H226 lung = system: NCI-H226 lung
RXF 393 renal = system: RXF 393 renal
SW-620 colon = system: SW-620 colon
UACC-257 melanoma = system: UACC-257 melanoma
SK-MEL-5 melanoma = system: SK-MEL-5 melanoma
CCRF-CEM leukemia = system: CCRF-CEM leukemia
SF-539 CNS = system: SF-539 CNS
UACC-62 melanoma = system: UACC-62 melanoma
MOLT-4 leukemia = system: MOLT-4 leukemia
SK-MEL-28 melanoma = system: SK-MEL-28 melanoma
NCI-H522 lung = system: NCI-H522 lung
HL-60(TB) leukemia = system: HL-60(TB) leukemia

Measured: TGI

O=c1ccn(C2OC(CN(O)CCC3C(O)C(CO)OC3n3ccc(=O)[nH]c3=O)C(O)C2O)c(=O)[nH]1 (centres undefined)
not listed: RXF 393 renal | SW-620 colon | UACC-257 melanoma | SK-MEL-5 melanoma | CCRF-CEM leukemia | SF-539 CNS | UACC-62 melanoma | MOLT-4 leukemia | SK-MEL-28 melanoma | NCI-H522 lung | HL-60(TB) leukemia
> 100 µM: all other assays above

CC(C)(C)N1C(=O)N=[N+](/C(=C(\c2ccccc2)n2nc([O-])n(C(C)(C)C)c2=O)c2ccccc2)C1=O
not listed: MALME-3M melanoma | EKVX NSCLC | NCI/ADR-RES ovarian | IGROV1 ovarian | OVCAR-8 ovarian | HOP-62 NSCLC | HT29 colon | NCI-H226 lung | NCI-H522 lung | HL-60(TB) leukemia
> 100 µM: all other assays above

CCOP(=O)(OCC)OC1c2[nH]ccc2-c2cc(C(=O)OC)[nH]c2C1OC (centres undefined)
not listed: A498 renal | HOP-92 NSCLC | RPMI-8226 leukemia | NCI-H226 lung
> 100 µM: all other assays above
